Data published in ChEMBL document CHEMBL4340561, “Application of the concept of oxime library screening by mass spectrometry (MS) binding assays to pyrrolidine-3-carboxylic acid derivatives as potential inhibitors of γ-aminobutyric acid transporter 1 (GAT1)” (Bioorg Med Chem, 2019).

How the values were obtained:
[1] = molecular target: T1, Sodium- and chloride-dependent GABA transporter 1 (Mus musculus, UniProt P31648); experiment: Inhibition of mouse GAT1 expressed in HEK293 cells assessed as reduction in [3H]GABA uptake preincubated for 25 mins followed by [3H]GABA addition and measured after 4 mins by liquid scintillation counting method; type: cell-based
[2] = molecular target: T1, Sodium- and chloride-dependent GABA transporter 1; experiment: Inhibition of NO711 binding to mouse GAT1 expressed in HEK293 cell membranes assessed as reduction in NO711 binding at incubated for 4 hrs in presence of NO711 by LC-ESI-MS/MS analysis relative to control
[3] = molecular target: T2, GABA transporter 4 (Mus musculus) (UniProt P31650); experiment: Inhibition of mouse GAT4 expressed in HEK293 cells assessed as remaining [3H]GABA uptake at 100 uM preincubated for 25 mins followed by [3H]GABA addition and measured after 4 mins by liquid scintillation counting method; type: cell-based
T2 sequence (whole entry): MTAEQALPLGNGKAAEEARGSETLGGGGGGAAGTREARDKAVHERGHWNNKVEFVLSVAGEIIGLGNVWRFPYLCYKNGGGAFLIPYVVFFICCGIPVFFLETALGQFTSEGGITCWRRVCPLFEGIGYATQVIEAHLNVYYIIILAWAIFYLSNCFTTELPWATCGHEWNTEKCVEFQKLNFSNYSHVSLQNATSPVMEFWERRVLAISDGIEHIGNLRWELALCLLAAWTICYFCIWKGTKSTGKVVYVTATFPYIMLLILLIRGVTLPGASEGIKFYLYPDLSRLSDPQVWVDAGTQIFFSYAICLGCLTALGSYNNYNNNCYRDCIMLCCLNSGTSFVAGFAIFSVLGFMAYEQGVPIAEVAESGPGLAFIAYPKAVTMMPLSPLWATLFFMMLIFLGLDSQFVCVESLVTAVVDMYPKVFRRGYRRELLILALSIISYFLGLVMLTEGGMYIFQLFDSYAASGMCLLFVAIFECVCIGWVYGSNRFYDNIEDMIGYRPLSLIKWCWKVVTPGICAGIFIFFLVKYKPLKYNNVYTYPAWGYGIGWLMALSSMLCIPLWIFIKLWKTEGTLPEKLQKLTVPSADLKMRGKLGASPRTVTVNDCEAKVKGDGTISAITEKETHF

[4] = tested on: Sodium- and chloride-dependent betaine transporter (Mus musculus); experiment: Inhibition of mouse GAT2 expressed in HEK293 cells assessed as remaining [3H]GABA uptake at 100 uM preincubated for 25 mins followed by [3H]GABA addition and measured after 10 mins by liquid scintillation counting method relative to control
[5] = tested on: Sodium- and chloride-dependent GABA transporter 2 (Mus musculus); experiment: Inhibition of mouse GAT3 expressed in HEK293 cells assessed as remaining [3H]GABA uptake at 100 uM preincubated for 25 mins followed by [3H]GABA addition and measured after 4 mins by liquid scintillation counting method
GABA transporter 4 = molecular target: T3, GABA transporter 4 (Mus musculus, UniProt P31650); experiment: Inhibition of mouse GAT4 expressed in HEK293 cells assessed as reduction in [3H]GABA uptake preincubated for 25 mins followed by [3H]GABA addition and measured after 4 mins by liquid scintillation counting method; type: cell-based
T3 sequence (P31650 whole entry): T2 sequence (whole entry)

| IC50 [1] | Kd [2] | Activity [3] | Activity [4] | Activity [5] | Ki [2] | IC50 (GABA transporter 4) | SMILES |
| --- | --- | --- | --- | --- | --- | --- | --- |
| 67600 nM |  |  |  |  |  |  | O=C(O)C1CCNC1 (stereo not given) |
|  | 26.5 nM |  |  |  |  |  | O=C(O)C1=CCCN(CCON=C(c2ccccc2)c2ccccc2)C1 |
| 4070 nM |  |  |  |  |  |  | O=C(O)CC1CCNC1 (stereo not given) |
| 4790 nM |  | 66% | 52% | 75% | 692 nM | ≥ 100000 nM | O=C(O)C1CCN(CCO/N=C/c2ccccc2-c2ccc(F)cc2Cl)C1 (stereo not given) |
| 2290 nM |  | 56% |  | 62% | 389 nM | ≥ 100000 nM | O=C(O)C1CCN(CCO/N=C/c2ccccc2-c2ccc(Cl)cc2Cl)C1 (stereo not given) |
| 1910 nM |  | 89% | 86% | 93% | 407 nM | ≥ 100000 nM | COc1cccc(F)c1-c1ccccc1/C=N/OCCN1CCC(C(=O)O)C1 (stereo not given) |
